According to patent publication US20050175535A1 (CV Therapeutics, Inc., priority 2000, published 2005):
Read-outs that look alike come from different tables or passages of the source.

How the values were obtained:
A2A adenosine receptors [1] = target: A2A adenosine receptors (Sus scrofa, UniProt K9IW67); assay: Competitive radioligand binding, [3H]ZM241385, pig striatum membranes
Procedure: Membranes were also obtained from porcine striatial cells as follows. […] The homogenate was filtered through cotton gauze and centrifuged at 48,000g for 15 minutes at 4° C. […] The final pellet was frozen at −80° C. until used for receptor binding assays.

[2] = Coronary blood flow and reversal time, intracoronary infusion in open-chest anesthetized pigs; assay type: in vivo; settings: 50 ug/kg/min intracoronary
Procedure: The magnitude of the effect of A2A adenosine receptor agonists on coronary dilation and the duration of the effect was determined in pigs weighing 22-27 kg. […] In addition, animals were used in accordance with the guidelines of the University of Kentucky Institutional Animal Care and Use Protocol.
Anesthesia was maintained with additional sodium pentobarbital (1.5-2 mg/kg, i.v.) every 15-20 minutes. Animals were ventilated via a tracheotomy tube using a mixture of room air and 100% O2. Tidal volume, respiratory rate and fraction of O2 in inspired air were adjusted to maintain arterial blood gas (ABG) and pH values. […] Lactate Ringers solution was administered via an ear or femoral vein as an initial bolus of 300-400 ml followed by a continuous infusion at a rate of 5-7 ml/kg/hr. A catheter was inserted into the femoral artery to monitor arterial blood pressure.
The heart was exposed through a median sternotomy and suspended in a pericardial cradle. Left ventricular pressure (LVP) was measured with a 5F high fidelity pressure sensitive tip transducer (Millar Instruments, Houston, Tex.) placed in the left ventricular cavity via an apical incision and secured with a purse string suture. A segment of the left anterior descending coronary artery (LAD), proximal to the origin of the first diagonal branch, was dissected free of surrounding tissue. A transit time perivascular flow probe (Transonic Systems Inc., Ithaca, N.Y.) was placed around this segment to measure CBF. Proximal to the flow probe, a 24-gauge modified angiocatheter was inserted for intracoronary infusions. […] The A2A adenosine receptors agonists were administered intracoronary.
Relationship between affinity of various agonists for A2A adenosine receptor and the reversal time of their effect to increase coronary conductance was determined in pigs. Each experiment was preceded by a 30-minute stabilization period following the completion of all instrumentation of the animal. Baseline hemodynamic data were then recorded and an intracoronary infusion of an A2A Adenosine receptors agonist was initiated. Each infusion was maintained for 4-5 minutes to allow LAD CBF to reach a steady-state, after which the infusion was terminated. The times to recovery of CBF by 50% (t0.5) and 90% (t0.9) of the difference from peak effect to baseline CBF were recorded. Ten to 15 minutes after CBF returned to pre-drug values a second infusion with a different agonist was started. […] Hemodynamic measurements were made prior to and following the initiation of the phenylephrine infusion. The phenylephrine infusion rate was adjusted during and following the infusions of the adenosine receptor agonists to maintain arterial blood pressure within 5 mmHg of pre-infusion values. The effect of a maximum of three different agonists was determined in each experiment.

A2A adenosine receptors [3] = target: A2A adenosine receptors (Rattus norvegicus, UniProt P30543); assay: Competitive radioligand binding, [3H]ZM241385, PC12 cell membranes
Procedure: Rat pheochromocytoma PC12 cells were obtained from the American Type Culture Collection and grown in DMEM with 5% fetal bovine serum, 10% horse serum, 0.5 mmol/L L-glutamine, 100 U/mL penicillin, 0.1 mg/l mL streptomycin, and 2.5 μg/mL amphotericin.
Cell membranes were harvested from the cell lines by detaching cells from the culture plates into ice-cold 50 mmol/L Tris-HCl buffer (pH 7.4). The cell suspensions were homogenized and centrifuged at 48,000g for 15 minutes. The pellets were washed three times by re-suspension in ice-cold Tris-HCl buffer and centrifugation. The final pellet was re-suspended in Tris-HCl, aliquoted and frozen at −80° C. until used for receptor binding assays.
Briefly, membrane suspensions, obtained from cells expressing either adenosine receptor subtypes A1, A2A, A2B or A3were incubated for 2 hours at room temperature in 50 mmol/L Tris-HCl buffer (pH 7.4) containing ADA (1U/mL). […] At the end of the incubation, free radioligand was separated from membrane-bound radioligand by filtration through Whatman GF/C glass fiber filters using a Brandel tissue harvester (Gaithersburg, Md.). Triplicate determinations were performed for each concentration of unlabelled compound.

[4] = target: human A2A adenosine receptors (Homo sapiens, UniProt P29274); assay: Competitive radioligand binding, [3H]ZM241385, HEK-hA2AAdoR membranes
Procedure: Each point represents the mean±SEM of triplicates pooled from at least three experiments.
ZM241385 was purchased from Tocris Cookson Ltd (Langford, Bristol, UK).
Competitive radiolabeling binding assays were performed to determine the binding affinities of the compounds of the invention for the adenosine receptor subtypes, A1, A2A, A2B and A3. Briefly, membrane suspensions, obtained from cells expressing either adenosine receptor subtypes A1, A2A, A2B or A3were incubated for 2 hours at room temperature in 50 mmol/L Tris-HCl buffer (pH 7.4) containing ADA (1U/mL). […] At the end of the incubation, free radioligand was separated from membrane-bound radioligand by filtration through Whatman GF/C glass fiber filters using a Brandel tissue harvester (Gaithersburg, Md.). Triplicate determinations were performed for each concentration of unlabelled compound.

[5] = target: A2A adenosine receptors (PC12 cells) (Rattus norvegicus, UniProt P30543); assay: Rate of decline of agonist-stimulated cAMP in PC12 cells after A2A antagonist SCH58261; settings: agonist 1 μM, after addition of SCH58261 (20 μM)
[6] = [3H]ZM241385, Gpp(NH)p present, read-out: pKi ± SEM, Pig Strialum (A2A) (converted)
[7] = read-out: binding affinity to A2A receptors in pig striatum (Ki)

A2A adenosine receptors (Rattus norvegicus, UniProt P30543), sequence (P30543 whole entry): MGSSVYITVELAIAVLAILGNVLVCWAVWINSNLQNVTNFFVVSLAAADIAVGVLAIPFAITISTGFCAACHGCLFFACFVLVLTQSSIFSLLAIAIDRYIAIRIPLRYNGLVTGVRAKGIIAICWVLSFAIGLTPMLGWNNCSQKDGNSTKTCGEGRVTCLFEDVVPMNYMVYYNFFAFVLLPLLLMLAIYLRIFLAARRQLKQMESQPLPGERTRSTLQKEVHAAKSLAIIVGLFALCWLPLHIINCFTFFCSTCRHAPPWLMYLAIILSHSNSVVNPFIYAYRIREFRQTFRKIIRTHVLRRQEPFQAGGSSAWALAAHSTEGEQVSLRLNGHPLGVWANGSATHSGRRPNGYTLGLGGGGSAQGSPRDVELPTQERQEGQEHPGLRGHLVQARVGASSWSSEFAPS
A2A adenosine receptors (Sus scrofa, UniProt K9IW67), sequence (K9IW67 1-409): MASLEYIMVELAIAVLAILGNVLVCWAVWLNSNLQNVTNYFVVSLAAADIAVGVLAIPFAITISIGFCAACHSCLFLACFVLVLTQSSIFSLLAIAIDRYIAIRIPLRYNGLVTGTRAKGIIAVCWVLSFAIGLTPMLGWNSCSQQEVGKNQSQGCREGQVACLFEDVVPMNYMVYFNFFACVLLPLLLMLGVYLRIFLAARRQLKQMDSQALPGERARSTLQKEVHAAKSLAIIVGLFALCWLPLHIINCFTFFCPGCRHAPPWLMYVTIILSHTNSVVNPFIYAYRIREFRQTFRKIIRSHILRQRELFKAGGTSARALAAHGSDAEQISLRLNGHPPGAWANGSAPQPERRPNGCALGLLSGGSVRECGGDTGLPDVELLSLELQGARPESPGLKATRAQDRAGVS
human A2A adenosine receptors, sequence (P29274 whole entry): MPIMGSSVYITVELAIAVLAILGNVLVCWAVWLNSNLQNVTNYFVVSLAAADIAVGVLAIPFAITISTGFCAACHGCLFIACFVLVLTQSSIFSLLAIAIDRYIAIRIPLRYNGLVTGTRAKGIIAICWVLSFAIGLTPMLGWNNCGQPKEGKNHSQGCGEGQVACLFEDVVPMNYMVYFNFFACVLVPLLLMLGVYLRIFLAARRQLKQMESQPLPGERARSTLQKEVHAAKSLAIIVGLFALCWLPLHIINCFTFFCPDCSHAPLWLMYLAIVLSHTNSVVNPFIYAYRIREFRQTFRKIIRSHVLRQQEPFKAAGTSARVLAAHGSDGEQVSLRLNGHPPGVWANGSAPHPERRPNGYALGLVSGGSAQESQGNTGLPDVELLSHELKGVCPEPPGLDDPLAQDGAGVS
A2A adenosine receptors (PC12 cells), sequence (P30543 whole entry): as the sequence (P30543 whole entry) above

For `CCCCCn1cc(-c2nc(N)c3ncn(C4O[C@@H](CO)[C@H](O)[C@@H]4O)c3n2)cn1` (stereo partly shown) [CVT-3033], the Ki (A2A adenosine receptors [1]; [6]) was 2.14 µM, the Ki (A2A adenosine receptors [1]; [7]) was 1.42 µM and the “CBF (fold-increase)” value [2] was 3.33 ± 0.58 fold. The “t0.5 reversal of increase in coronary blood flow” value [2] was 3.1 ± 0.9 min, the “t0.9 reversal of increase in coronary blood flow” value [2] was 12.0 ± 1.0 min and the Ki (A2A adenosine receptors [3]; binding affinity to A2A in PC12 cells (Ki)) was 3.62 µM. It also gave a Ki (A2A adenosine receptors [3]; pKi ± SEM, PC12 cells (A2A), [3H]ZM241385) of 3.55 µM, a Ki ([4]; binding affinity in HEK cells expressing human A2A receptors (Ki)) of 2.9 µM and a Ki ([4]; pKi ± SEM, HEK-hA2AAdoR, [3H]ZM241385) of 2.88 µM. The “t0.5, rate of decline of cAMP accumulated” value [5] was 1.9 ± 0.1 min.

In the case of `CNC(=O)c1cnn(-c2nc(N)c3ncn(C4O[C@@H](CO)[C@H](O)[C@@H]4O)c3n2)c1` (stereo partly shown) [CVT-3146], the Ki (A2A adenosine receptors [1]; [6]) is reported as 1.12 µM, the Ki (A2A adenosine receptors [1]; [7]) is reported as 1.1 µM and the Ki (A2A adenosine receptors [3]) is reported as 1.73 µM.
